Activity calls are given as the source filed them.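 The calls were made as follows: active = compounds lowering heat-shock reporter fluorescence with mean IC50 at or below 15 µM, flagged as SKN-1 screen artifacts; inactive = the rest.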
The compounds below were run on C. elegans VP596 hsp-16.2 GFP/RFP after heat shock (assay: inhibitors of heat-induced hsp-16.2 GFP signal – whole organism, C. elegans VP596, GFP/RFP ratio, round 2, counter-screen for SKN-1 inhibitor project, SAR follow-up (AID 652273)).

Row | Structure (SMILES) | IC50
1 | CCOc1cc(CN2CCOCC2)cc(Cl)c1OCc1ccc(Cl)cc1 | > 64 µM (inactive)
2 | CCOc1cc(CNC2CC2)cc(Cl)c1OCc1ccc(Cl)cc1F | > 64 µM (inactive)
3 | CCOc1cc(CN2CCOCC2)cc(Cl)c1OCc1ccc(F)cc1 | > 64 µM (inactive)
4 | CCOc1cc(CNC2CCCC2)cc(Cl)c1OCc1ccc(C#N)cc1 | > 64 µM (inactive)
5 | CCOc1cc(CN2CCCC2)cc(Cl)c1OCc1ccc(Cl)cc1 | > 64 µM (inactive)
6 | CCOc1cc(CNC)cc(Cl)c1OCc1ccc(Cl)cc1 | > 64 µM (inactive)
7 | CCOc1cc(CN2CCN(C)CC2)cc(Cl)c1OCc1ccc(F)cc1 | > 64 µM (inactive)
8 | CCOc1cc(CN(C)C2CCCC2)cc(Cl)c1OCc1ccc(Cl)cc1 | > 64 µM (inactive)
9 | CCOc1cc(CNC2CC2)cc(Cl)c1OCc1ccc(Cl)cc1 | > 64 µM (inactive)
10 | CCOc1cc(CN2CCN(C)CC2)cc(Cl)c1OCc1ccc(Cl)cc1 | > 64 µM (inactive)
11 | Cc1cc(CNC2CCCC2)cc(C)c1OCc1ccc(Cl)cc1 | > 64 µM (inactive)
12 | CCOc1cc(CN2CCCC2)cc(Cl)c1OCc1ccc(F)cc1 | > 64 µM (inactive)
13 | COc1cc(CNC2CCCC2)cc(F)c1OCc1ccc(Cl)cc1 | > 64 µM (inactive)
14 | CCOc1cc(CN2CCCCC2)cc(Cl)c1OCc1ccc(F)cc1 | > 64 µM (inactive)
15 | CCOc1cc(CNCC2CC2)cc(Cl)c1OCc1ccc(Cl)cc1 | > 64 µM (inactive)
16 | CCOc1cc(CNC2CC2)cc(Cl)c1OCc1ccc(C#N)cc1 | > 64 µM (inactive)
17 | CCOc1cc(CNC2CC2)cc(Cl)c1OCc1ccc(Br)cc1 | > 64 µM (inactive)
18 | CCOc1cc(CNC2CCCC2)cc(Cl)c1OCc1ccc(Cl)cc1F | > 64 µM (inactive)
19 | CCOc1cc(CN2CCCCC2)cc(Cl)c1OCc1ccc(Cl)cc1 | > 64 µM (inactive)
20 | CCCNCc1cc(Cl)c(OCc2ccc(Cl)cc2)c(OCC)c1 | > 64 µM (inactive)
21 | C=CCNCc1cc(Cl)c(OCc2ccc(Cl)cc2)c(OCC)c1 | > 64 µM (inactive)
22 | C#CCNCc1cc(Cl)c(OCc2ccc(Cl)cc2)c(OCC)c1 | > 64 µM (inactive)
23 | CCOc1cc(CNC2CCCC2)cc(Cl)c1OCc1ccc(Br)cc1 | > 64 µM (inactive)
24 | Clc1ccc(COc2c(Cl)cc(CNC3CCCC3)cc2Cl)cc1 | > 64 µM (inactive)
25 | COc1cc(CNC2CCCC2)cc(Cl)c1OCc1ccc(Cl)cc1 | > 64 µM (inactive)
26 | CCOc1cc(CN(C(C)=O)C2CCCC2)cc(Cl)c1OCc1ccc(Cl)cc1 | > 64 µM (inactive)
27 | COc1cc(CNC2CCCC2)cc(Br)c1OCc1ccc(Cl)cc1 | > 64 µM (inactive)

— PubChem BioAssay AID652273 (Sanford-Burnham Center for Chemical Genomics, 2013)
